This is an account of results in PubChem BioAssay AID196 (DTP/NCI, 2004).

The test system of this assay is BDF1 mice, intracerebral B16 melanoma, median survival T/C. Kind of assay: NCI In Vivo Anticancer Drug Screen. Data for tumor model B16 Melanoma (intracerebral) in B6D2F1 (BDF1) mice. The conditions noted are these: endpoint: median survival time, higher = longer survival. The method, then: The antitumor activity of compounds was measured in mice bearing transplantable tumors. Survival or tumor size were measured and the results are expressed as the measurement made in the treated group (T) divided by the measurement made in the vehicle treated control group (C). The tumor model used in this assay is B16 Melanoma (intracerebral) in B6D2F1 (BDF1) mice

Setting [1] is: dose: 25.0 mg/kg/injection, schedule: Q01DX009 (ip), vehicle: saline.
Setting [2] is: dose: 4.0 mg/kg/injection, schedule: Q01DX009 (ip), vehicle: saline.
Where [3] appears, read: dose: 8.0 mg/kg/injection, schedule: Q01DX009 (ip), vehicle: saline.

Values joined by “and” are separate entries in the source; they are usually repeats but may differ in a detail not shown here. Equal values may be shown once. Toxic doses and inconclusive results are not listed. *1 amine or outer side, *2 acyl side, *3 side chain or, on linkers, in order; H or OH if unused. Where a SMILES comes first, the peptide text is derived from it. Bridges are numbered along the chain shown (N, C = ends). Roman numbers before positions name the chains, in order. [ ]: non-standard residue; d: D form. Actinocin(9to1) = Cc1c2oc3c(C)ccc(C(=O)[*:1])c3nc-2c(C(=O)[*:2])c(N)c1=O; aThr = C[C@H](O)[C@H](N)C(=O)O; NMeV = CN[C@H](C(=O)O)C(C)C; Sar = CNCC(=O)O

On to `COc1cc(NS(C)(=O)=O)ccc1Nc1c2ccccc2nc2ccccc12`, for which the T/C (dose: 0.5 mg/kg/injection, schedule: Q01DX009 (ip), vehicle: distilled water + Tween-80) was 88 % of control; the T/C (dose: 1.0 mg/kg/injection, schedule: Q01DX009 (ip), vehicle: distilled water + Tween-80) is 116 % of control; the T/C (dose: 2.0 mg/kg/injection, schedule: Q01DX009 (ip), vehicle: distilled water + Tween-80) was 109 % of control; the T/C (dose: 4.0 mg/kg/injection, schedule: Q01DX009 (ip), vehicle: distilled water + Tween-80) is 101 % of control; the T/C (dose: 5.0 mg/kg/injection, schedule: Q04DX003 (ip), vehicle: Klucel (hydroxypropylcellulose) (HPC)) was 94 % of control; the T/C (dose: 5.0 mg/kg/injection, schedule: Q04DX003 (ip), vehicle: saline) was 108 % of control. Further, the T/C was 97 % of control (dose: 8.0 mg/kg/injection, schedule: Q01DX009 (ip), vehicle: distilled water + Tween-80) and 112 % of control (dose: 10.0 mg/kg/injection, schedule: Q04DX003 (ip), vehicle: saline).
`C[C@]1(O)CC[C@H]2[C@@H]3CCC4=CC(=O)CC[C@]4(C)[C@@]3(F)[C@@H](O)C[C@@]21C`: the T/C runs as follows: (dose: 8.0 mg/kg/injection, schedule: Q01DX009 (ip), vehicle: Klucel (hydroxypropylcellulose) (HPC)) 115 % of control; (dose: 64.0 mg/kg/injection, schedule: Q01DX009 (ip), vehicle: Klucel (hydroxypropylcellulose) (HPC)) 111 % of control; (dose: 128.0 mg/kg/injection, schedule: Q01DX009 (ip), vehicle: Klucel (hydroxypropylcellulose) (HPC)) 111 % of control; (dose: 256.0 mg/kg/injection, schedule: Q01DX009 (ip), vehicle: Klucel (hydroxypropylcellulose) (HPC)) 95 % of control.
As for `COc1cc(C[C@H]2c3cc(OC)c(OC)cc3CCN2C)c(Oc2cc3c(cc2OC)-c2c(OC)c(OC)cc4c2[C@H](C3)N(C)CC4)cc1OC`, the T/C is 120 % of control and 94 % of control (dose: 50.0 mg/kg/injection, schedule: Q01DX005 (ip), vehicle: Klucel (hydroxypropylcellulose) (HPC)); 108 % of control (dose: 100.0 mg/kg/injection, schedule: Q01DX005 (ip), vehicle: Klucel (hydroxypropylcellulose) (HPC)).
As for `O=C1C=CN(C2OC(CO)C(O)C2O)C(=O)C1` (stereo not given), the T/C runs as follows: (dose: 12.5 mg/kg/injection, schedule: Q01DX009 (ip), vehicle: saline) 90 % of control; under setting [1], 97 % of control; (dose: 50.0 mg/kg/injection, schedule: Q01DX009 (ip), vehicle: saline) 97 % of control; (dose: 100.0 mg/kg/injection, schedule: Q01DX009 (ip), vehicle: saline) 100 % of control; (dose: 200.0 mg/kg/injection, schedule: Q01DX009 (ip), vehicle: saline) 111 % of control; (dose: 400.0 mg/kg/injection, schedule: Q01DX009 (ip), vehicle: saline) 107 % of control.
Turning to `Cc1ccc2c(c1)Sc1ccc(N=NN(C)C)cc1N2C`, the T/C was 101 % of control (dose: 6.25 mg/kg/injection, schedule: Q01DX009 (ip), vehicle: other); 116 % of control (dose: 12.5 mg/kg/injection, schedule: Q01DX009 (ip), vehicle: other); 98 % of control (dose: 25.0 mg/kg/injection, schedule: Q01DX009 (ip), vehicle: other); 116 % of control (dose: 50.0 mg/kg/injection, schedule: Q01DX009 (ip), vehicle: other); 112 % of control (dose: 100.0 mg/kg/injection, schedule: Q01DX009 (ip), vehicle: other).
Regarding `Cc1ncc(CNC(=O)N(CCCl)N=O)c(N)n1`, the T/C (dose: 12.5 mg/kg/injection, schedule: Q01DX009 (ip), vehicle: Klucel (hydroxypropylcellulose) (HPC)) is 179 % of control and the T/C (dose: 25.0 mg/kg/injection, schedule: Q01DX009 (ip), vehicle: Klucel (hydroxypropylcellulose) (HPC)) was 105 % of control.
On to `Cc1ncc(CO)c(C)c1O`, for which the T/C is, setting by setting: (dose: 128.0 mg/kg/injection, schedule: Q01DX005 (ip), vehicle: Klucel (hydroxypropylcellulose) (HPC)) 100 % of control and 109 % of control; (dose: 256.0 mg/kg/injection, schedule: Q01DX005 (ip), vehicle: Klucel (hydroxypropylcellulose) (HPC)) 98 % of control and 105 % of control.
With `S=P(N1CC1)(N1CC1)N1CC1`, the T/C is 108 % of control (2×) and 113 % of control (dose: 1.0 mg/kg/injection, schedule: Q01DX009 (ip), vehicle: saline); 100 % of control (dose: 2.0 mg/kg/injection, schedule: Q01DX009 (ip), vehicle: saline); 120 % of control and 122 % of control under setting [2]; 172 % of control under setting [3].
Consider `O=[N+]([O-])O.[Ga]`, for which the T/C (dose: 32.0 mg/kg/injection, schedule: Q01DX005 (ip), vehicle: saline) was 112 % of control; the T/C (dose: 64.0 mg/kg/injection, schedule: Q01DX005 (ip), vehicle: saline) was 93 % of control and 112 % of control; the T/C (dose: 128.0 mg/kg/injection, schedule: Q01DX005 (ip), vehicle: saline) is 103 % of control.
Consider `CC[n+]1c(-c2ccccc2)c2cc(N)ccc2c2ccc(N)cc21`, for which the T/C (dose: 6.0 mg/kg/injection, schedule: Q01DX005 (ip), vehicle: saline) was 95 % of control; the T/C (dose: 12.0 mg/kg/injection, schedule: Q01DX005 (ip), vehicle: saline) is 104 % of control and 105 % of control and 109 % of control; the T/C (dose: 24.0 mg/kg/injection, schedule: Q01DX005 (ip), vehicle: saline) is 105 % of control.
Take `N=C(N)SCc1c2ccccc2c(CSC(=N)N)c2ccccc12`: the T/C is, setting by setting: (dose: 2.5 mg/kg/injection, schedule: Q01DX005 (ip), vehicle: Klucel (hydroxypropylcellulose) (HPC)) 107 % of control and 111 % of control; (dose: 5.0 mg/kg/injection, schedule: Q01DX005 (ip), vehicle: Klucel (hydroxypropylcellulose) (HPC)) 90 % of control and 92 % of control; (dose: 10.0 mg/kg/injection, schedule: Q01DX005 (ip), vehicle: Klucel (hydroxypropylcellulose) (HPC)) 97 % of control and 103 % of control; (dose: 20.0 mg/kg/injection, schedule: Q01DX005 (ip), vehicle: Klucel (hydroxypropylcellulose) (HPC)) 93 % of control and 96 % of control.
Regarding `COc1ccc2c(c1)CCC(c1ccccc1)=C2c1ccc(OCCN2CCCC2)cc1`, the T/C reads like this: (dose: 3.0 mg/kg/injection, schedule: Q01DX005 (ip), vehicle: Klucel (hydroxypropylcellulose) (HPC)) 97 % of control; (dose: 6.0 mg/kg/injection, schedule: Q01DX005 (ip), vehicle: Klucel (hydroxypropylcellulose) (HPC)) 97 % of control; (dose: 12.0 mg/kg/injection, schedule: Q01DX005 (ip), vehicle: Klucel (hydroxypropylcellulose) (HPC)) 95 % of control and 105 % of control; (dose: 24.0 mg/kg/injection, schedule: Q01DX005 (ip), vehicle: Klucel (hydroxypropylcellulose) (HPC)) 124 % of control and 96 % of control and 108 % of control; (dose: 48.0 mg/kg/injection, schedule: Q01DX005 (ip), vehicle: Klucel (hydroxypropylcellulose) (HPC)) 92 % of control and 112 % of control; (dose: 96.0 mg/kg/injection, schedule: Q01DX005 (ip), vehicle: Klucel (hydroxypropylcellulose) (HPC)) 100 % of control.
As for `CN(N=O)C(N)=O`, the T/C runs as follows: (dose: 1.56 mg/kg/injection, schedule: Q01DX009 (ip), vehicle: saline) 118 % of control; (dose: 6.25 mg/kg/injection, schedule: Q01DX009 (ip), vehicle: saline) 112 % of control; under setting [1], 168 % of control.
In the case of `Cc1c2oc3c(C)ccc(C(=O)N[C@@H]4C(=O)N[C@H](C(C)C)C(=O)N5CCC[C@H]5C(=O)N(C)CC(=O)N(C)[C@@H](C(C)C)C(=O)O[C@H]4C)c3nc-2c(C(=O)N[C@@H]2C(=O)N[C@H](C(C)C)C(=O)N3CCC[C@H]3C(=O)N(C)CC(=O)N(C)[C@@H](C(C)C)C(=O)O[C@H]2C)c(N)c1=O` (I: [aThr][dV]P[Sar][NMeV] / II: [aThr][dV]P[Sar][NMeV]; ester I:1-I:C, II:1-II:C; linker I:N-II:N via Actinocin(9to1)), the T/C was 118 % of control (dose: 0.02 mg/kg/injection, schedule: Q01DX009 (ip), vehicle: water) and 109 % of control (dose: 0.05 mg/kg/injection, schedule: Q01DX009 (ip), vehicle: water).
As to `Cc1c(N)nc([C@H](CC(N)=O)NC[C@H](N)C(N)=O)nc1C(=O)N[C@H](C(=O)N[C@H](C)[C@@H](O)[C@H](C)C(=O)N[C@H](C(=O)NCCc1nc(-c2nc(C(=O)NCCC[S+](C)C)cs2)cs1)[C@@H](C)O)C(OC1OC(CO)C(O)C(O)C1OC1OC(CO)C(O)C(OC(N)=O)C1O)c1cnc[nH]1` (stereo not given in full), the T/C was 110 % of control under setting [2]; 120 % of control under setting [3]; 106 % of control (dose: 16.0 mg/kg/injection, schedule: Q01DX009 (ip), vehicle: saline).
Turning to `CS(=O)(=O)Nc1ccc(Nc2c3ccccc3nc3cc([N+](=O)[O-])ccc23)cc1`, the T/C was 100 % of control (dose: 25.0 mg/kg/injection, schedule: Q04DX003 (ip), vehicle: saline sonified); 95 % of control (dose: 50.0 mg/kg/injection, schedule: Q04DX003 (ip), vehicle: saline sonified); 87 % of control (dose: 75.0 mg/kg/injection, schedule: Q04DX003 (ip), vehicle: saline sonified).
